# According to patent US20250122225A1, “MASP-2 INHIBITORS AND METHODS OF USE” (Omeros Corporation, priority 2023, published 2025):
# Structures can show the parent of a compound that is named as a salt.
# Columns and labels:
# [1] = biological target: T1, MASP-2 (CCP1-CCP2-SP) (Homo sapiens, UniProt O00187); assay: Enzymatic assay for MASP-2 inhibitory activity (fluorogenic substrate); type: biochemical
# T1 construct: 15 μL of Enzyme MASP-2 (CCP1-CCP2-SP) in Assay Buffer
# Procedure, shortened: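 Fluorescence was normalized between no-enzyme and DMSO-only controls to derive % activity, with IC50 taken as equivalent to Ki except for tight-binding inhibitors. Reactions ran 20 min at room temperature in HEPES pH 7.4/NaCl/Tween 20 buffer, using the C2-derived fluorogenic substrate, before acetic acid stop.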
# [2] = biological target: T2, human α-thrombin (Homo sapiens, UniProt P00734); assay: Enzymatic assay for thrombin (fluorogenic peptide substrate Boc-VPR-AMC); type: biochemical
# T2 construct: enzyme (human α-thrombin (BioPharm® Lab.)) in assay buffer; purchased BioPharm® Lab
# Procedure, shortened: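 Assay conditions kept the reaction linear in time, enzyme and substrate, so IC50 approximated Ki apart from tight- or slow-binding cases. Boc-VPR-AMC cleavage by human α-thrombin proceeded 20 min at room temperature in Hepes pH 7.4/NaCl/Tween 20 buffer, then was acid-quenched and read by fluorescence.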
# T1 sequence (O00187 445-686 limits assumed): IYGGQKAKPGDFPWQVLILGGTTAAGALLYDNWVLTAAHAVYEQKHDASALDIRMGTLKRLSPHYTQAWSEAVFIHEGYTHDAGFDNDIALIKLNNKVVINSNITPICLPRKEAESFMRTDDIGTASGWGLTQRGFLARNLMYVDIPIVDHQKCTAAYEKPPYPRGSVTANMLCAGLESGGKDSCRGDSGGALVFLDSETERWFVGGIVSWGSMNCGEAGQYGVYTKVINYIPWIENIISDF
# T1 sequence (O00187 287-444 partner limits assumed): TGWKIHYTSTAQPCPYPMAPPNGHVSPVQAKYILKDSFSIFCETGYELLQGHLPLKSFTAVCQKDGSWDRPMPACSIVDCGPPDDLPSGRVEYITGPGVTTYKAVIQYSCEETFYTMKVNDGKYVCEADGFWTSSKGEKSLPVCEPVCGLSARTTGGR
Ki [1] [nM],Ki [2] [nM],SMILES
< 500,500 to 2500,"Cc1cccc([C@H](C)Nc2ncc3n(c2=O)[C@H](C(=O)NCc2cc4c(s2)CNC4)CC3)c1 [Compound 95, (S)-N-((5,6-dihydro-4H-thieno[2,3-c]pyrrol-2-yl)methyl)-4-oxo-3-(((S)-1-(m-tolyl)ethyl)amino)-4,6,7,8-tetrahydropyrrolo[1,2-a]pyrazine-6-carboxamide]"
< 500,500 to 2500,CCc1cccc(CNc2nc(Cl)c3n(c2=O)[C@H](C(=O)NCc2ccc(N)nc2C)CC3)c1 [Compound 4]
< 500,10000 to 25000,"O=C(NCc1cc2cnccc2[nH]1)[C@@H]1CCc2c(Cl)nc(NCc3cccc(F)c3)c(=O)n21 [Compound 25, (S)-N-((1H-pyrrolo[3,2-c]pyridin-2-yl)methyl)-1-chloro-3-((3-fluorobenzyl)amino)-4-oxo-4,6,7,8-tetrahydropyrrolo[1,2-a]pyrazine-6-carboxamide]"
< 500,2500 to 10000,"Cc1cc(F)cc(CNc2nc(C#N)c3n(c2=O)[C@H](C(=O)NCc2ccc(N)nc2C)CC3)c1 [Compound 222, (S)—N-((6-amino-2-methylpyridin-3-yl)methyl)-1-cyano-3-((3-fluoro-5-methylbenzyl)amino)-4-oxo-4,6,7,8-tetrahydropyrrolo[1,2-a]pyrazine-6-carboxamide trifluoroacetate]"
< 500,2500 to 10000,"CCc1cccc(CNc2nc(Cl)c3n(c2=O)[C@H](C(=O)NCc2cc4cnccc4[nH]2)CC3)c1 [Compound 3, (S)-N-((1H-pyrrolo[3,2-c]pyridin-2-yl)methyl)-1-chloro-3-((3-ethylbenzyl)amino)-4-oxo-4,6,7,8-tetrahydropyrrolo[1,2-a]pyrazine-6-carboxamide]"
< 500,> 25000,"COc1cc(C)cc(CNc2ncc3n(c2=O)[C@H](C(=O)NCc2cc4cnc(C)cc4[nH]2)C[C@@H]3Cc2ccccc2)c1 [Compound 137, (6S,8S)-8-benzyl-3-((3-methoxy-5-methylbenzyl)amino)-N-((6-methyl-1H-pyrrolo[3,2-c]pyridin-2-yl)methyl)-4-oxo-4,6,7,8-tetrahydropyrrolo[1,2-a]pyrazine-6-carboxamide]"
< 500,500 to 2500,"Cc1nc(N)ccc1CNC(=O)[C@@H]1CCc2c(Cl)nc(NCc3cccc(S(C)(=O)=O)c3)c(=O)n21 [Compound 98, (S)—N-((6-amino-2-methylpyridin-3-yl)methyl)-1-chloro-3-((3-(methylsulfonyl)benzyl)amino)-4-oxo-4,6,7,8-tetrahydropyrrolo[1,2-a]pyrazine-6-carboxamide trifluoroacetate]"
< 500,< 500,O=C(NCc1cc2c(s1)CNC2)[C@@H]1CCc2cnc(NC3CCc4ccccc43)c(=O)n21 (stereo partly drawn) [Compound 235]
< 500,10000 to 25000,"Cc1cc(C)cc(CNc2ncc3n(c2=O)[C@H](C(=O)NCc2cc4cnc(C)cc4[nH]2)CC3)c1 [Compound 50, (S)-3-((3,5-dimethylbenzyl)amino)-N-((6-methyl-1H-pyrrolo[3,2-c]pyridin-2-yl)methyl)-4-oxo-4,6,7,8-tetrahydropyrrolo[1,2-a]pyrazine-6-carboxamide]"
< 500,2500 to 10000,"Cc1cc(CNc2ncc3n(c2=O)[C@H](C(=O)N[C@H](C)c2ccc(N)nc2)CC3)cc(C(F)(F)F)c1 [Compound 203, (S)-N-((R)-1-(6-aminopyridin-3-yl)ethyl)-3-((3-methyl-5-(trifluoromethyl)benzyl)amino)-4-oxo-4,6,7,8-tetrahydropyrrolo[1,2-a]pyrazine-6-carboxamide]"
< 500,2500 to 10000,"O=C(NCc1cc2cnccc2[nH]1)[C@@H]1CC2(CC2)c2c(Cl)nc(NCc3ccccc3)c(=O)n21 [Compound 128, (S)—N-((1H-pyrrolo[3,2-c]pyridin-2-yl)methyl)-3′-(benzylamino)-1′-chloro-4′-oxo-6′,7′-dihydro-4′H-spiro[cyclopropane-1,8′-pyrrolo[1,2-a]pyrazine]-6′-carboxamide]"
< 500,10000 to 25000,"Cc1ccccc1CNc1ncc2n(c1=O)[C@H](C(=O)N[C@H](C)c1ccc(N)nc1)CC2 [Compound 202, (S)-N-((R)-1-(6-aminopyridin-3-yl)ethyl)-3-((2-methylbenzyl)amino)-4-oxo-4,6,7,8-tetrahydropyrrolo[1,2-a]pyrazine-6-carboxamide]"
< 500,< 500,"CC[C@H]1C[C@@H](C(=O)NCc2ccc(N)nc2C)n2c1cnc(NCc1ccccc1)c2=O [Compound 154, (6S,8S)-N-((6-amino-2-methylpyridin-3-yl)methyl)-3-(benzylamino)-8-ethyl-4-oxo-4,6,7,8-tetrahydropyrrolo[1,2-a]pyrazine-6-carboxamide]"
500 to 2500,10000 to 25000,"Cc1nc(N)ccc1CNC(=O)[C@@H]1CCc2c(Cl)nc(NCC3COC3)c(=O)n21 [Compound 146, (S)-N-((6-amino-2-methylpyridin-3-yl)methyl)-1-chloro-3-((oxetan-3-ylmethyl)amino)-4-oxo-4,6,7,8-tetrahydropyrrolo[1,2-a]pyrazine-6-carboxamide]"
< 500,2500 to 10000,"O=C(NCc1cc2cnccc2[nH]1)[C@@H]1CCc2cnc(NCc3cccc(-c4ccccc4)c3)c(=O)n21 [Compound 147, (S)—N-((1H-pyrrolo[3,2-c]pyridin-2-yl)methyl)-3-(([1,1′-biphenyl]-3-ylmethyl)amino)-4-oxo-4,6,7,8-tetrahydropyrrolo[1,2-a]pyrazine-6-carboxamide]"
< 500,< 500,O=C(NCc1cc2cnccc2[nH]1)[C@@H]1CCc2cnc(NCCc3ccccc3)c(=O)n21 [Compound 248]
< 500,2500 to 10000,"Cc1nc(N)ccc1CNC(=O)[C@@H]1CCc2c(Cl)nc(NCc3cccc(C(F)F)c3)c(=O)n21 [Compound 16, (S)-N-((6-amino-2-methylpyridin-3-yl)methyl)-1-chloro-3-((3-(difluoromethyl)benzyl)amino)-4-oxo-4,6,7,8-tetrahydropyrrolo[1,2-a]pyrazine-6-carboxamide]"
< 500,> 25000,"O=C(NCc1cc2cnccc2[nH]1)[C@@H]1CCc2c(Cl)nc(NC3CCC3)c(=O)n21 [Compound 100, (S)—N-((1H-pyrrolo[3,2-c]pyridin-2-yl)methyl)-1-chloro-3-(cyclobutylamino)-4-oxo-4,6,7,8-tetrahydropyrrolo[1,2-a]pyrazine-6-carboxamide trifluoroacetate]"
< 500,> 25000,"O=C(NCc1cc2cnccc2[nH]1)[C@@H]1CCc2c(Cl)nc(NCC3CCCCC3)c(=O)n21 [Compound 112, (S)-N-((1H-pyrrolo[3,2-c]pyridin-2-yl)methyl)-1-chloro-3-((cyclohexylmethyl)amino)-4-oxo-4,6,7,8-tetrahydropyrrolo[1,2-alpyrazine-6-carboxamide trifluoroacetate]"
< 500,< 500,CCC[C@@H](Nc1ncc2n(c1=O)[C@H](C(=O)NCc1cc3c(s1)CNC3)CC2)c1ccccc1 [Compound 258]
< 500,500 to 2500,"Cc1cc(C)cc(CNc2ncc3n(c2=O)[C@H](C(=O)NCc2cc4cnccc4[nH]2)CC32CC2)c1 [Compound 123, (S)-N-((1H-pyrrolo[3,2-c]pyridin-2-yl)methyl)-3′-((3,5-dimethylbenzyl)amino)-4′-oxo-6′,7′-dihydro-4′H-spiro[cyclopropane-1,8′-pyrrolo[1,2-a]pyrazine]-6′-carboxamide trifluoroacetate]"
< 500,< 500,"Cc1cccc(CNc2ncc3n(c2=O)[C@H](C(=O)NCc2ccc(N)nc2C)CC3)c1F [Compound 62, (S)-N-((6-amino-2-methylpyridin-3-yl)methyl)-3-((2-fluoro-3-methylbenzyl)amino)-4-oxo-4,6,7,8-tetrahydropyrrolo[1,2-a]pyrazine-6-carboxamide]"
< 500,< 500,"Cc1cc(C)cc(CNc2ncc3n(c2=O)[C@H](C(=O)NCc2ccc(N)nc2)CC3)c1 [Compound 87, (S)-N-((6-aminopyridin-3-yl)methyl)-3-((3,5-dimethylbenzyl)amino)-4-oxo-4,6,7,8-tetrahydropyrrolo[1,2-a]pyrazine-6-carboxamide]"
10000 to 25000,> 25000,"Cc1cc(C)cc(CNc2ncc3n(c2=O)[C@H](C(=O)NCc2ccccn2)CC3)c1 [Compound 40, (S)-3-((3,5-dimethylbenzyl)amino)-4-oxo-N-(pyridin-2-ylmethyl)-4,6,7,8-tetrahydropyrrolo[1,2-a]pyrazine-6-carboxamide trifluoroacetate]"
500 to 2500,2500 to 10000,N=C(N)c1ccc(CNC(=O)[C@@H]2CCc3c(Cl)nc(NCCc4ccccc4)c(=O)n32)cc1 [Compound 250]
< 500,2500 to 10000,"Cc1ccccc1[C@H](C)Nc1ncc2n(c1=O)[C@H](C(=O)NCc1cc3cnccc3[nH]1)CC2 [Compound 83, (S)-N-((1H-pyrrolo[3,2-c]pyridin-2-yl)methyl)-4-oxo-3-(((S)-1-(o-tolyl)ethyl)amino)-4,6,7,8-tetrahydropyrrolo[1,2-a]pyrazine-6-carboxamide]"
< 500,2500 to 10000,"COc1cc(C)cc(CNc2nc(Cl)c3n(c2=O)[C@H](C(=O)NCc2cc4cnccc4[nH]2)CC3)c1 [Compound 7, (S)-N-((1H-pyrrolo[3,2-c]pyridin-2-yl)methyl)-1-chloro-3-((3-methoxy-5-methylbenzyl)amino)-4-oxo-4,6,7,8-tetrahydropyrrolo[1,2-a]pyrazine-6-carboxamide]"
